Measured values published in patent publication US5641760A, “Method of treating candida infection” (Pence, Inc., priority 1994, dated 1997).

What was measured:
[1] = system: Candida albicans strain #40 fimbriae (enriched fimbriae EF, 66 kDa fimbrial subunit/adhesin protein); assay: Microtiter plate binding of fimbriae to immobilized glycosphingolipids; settings: GSL immobilized in microtiter wells (0.5 μg/well)
Experimental: Binding of Candida fimbriae to GSLs was further assessed using an assay in which GSLs were immobilized on microtiter plates. […] The amount of fimbriae bound is represented as the absorbance values measured at 405 nm. The concentration of fimbrial protein required for half-maximal binding was determined to be 8 μg/ml under the assay conditions, indicating a reasonably high affinity of fimbriae for asialo-GM1.
Polystyrene microtiter plate wells (Nunc) were coated with asialo-GM1 or ceramide trihexoside (CTH) (Sigma Chem. Co., St. Louis, Mo.). Aliquots of the GSLs (5 μg/ml resuspended in methanol) were added into the wells (100 μl/well) and the plates were incubated overnight at 4° C. The wells were washed three times with 250 μl/well of 10 mM phosphate buffered saline pH 7.4 containing 150 mM NaCl (PBS) supplemented with 0.05% (w/v) bovine serum albumin (Buffer A). […] Wells were washed 5 times with 250 μl/well of Buffer A. Antibody binding to EF was assessed by the addition of a goat anti-mouse heavy and light chain [IgG(H+L)] immunoglobulin G-peroxidase conjugates (Jackson Laboratories) to each well (100 μl/well) and incubated for 1 hour at 37° C. […] The reaction was stopped by an addition of 125 μl/well of 4 mM sodium azide and the absorbance at 405 nm was recorded.

[2] = system: Candida albicans fimbriae (binding to human BECs); assay: Inhibition of fimbriae binding to human buccal epithelial cells (BECs); assay type: cell-based; settings: fimbriae 50 μg preincubated with competitor 1 h at 37° C., 2.0×10^5 BECs
Experimental: The percent inhibition is the inhibition of binding in the presence of the competing antigens with respect to binding observed in the absence of any competitors.
The fimbrial adherence assay was performed using a Manifold filtration apparatus equipped with individual vacuum stopcocks (Model FH 225V, Hoefer Scientific Instruments). Polycarbonate filters, 12 μm pore size (Nucleopore Costar Corp.), were pre-incubated overnight at 4° C. with 50 ml of PBS pH 7.2, containing 0.45% (v/v) Tween 20. The pretreated filters were placed into each chamber and washed with 2.5 ml of PBS. 1 ml containing 2.0×10^5 BECs in PBS was added to each chamber. Enriched fimbriae (100 μl/chamber, ranging from 0 to 80 μg fimbriae protein/ml) in PBS containing 0.05% (v/v) Tween-20 was added to each chamber and incubated with the BECs for 1.5 hours at room temperature. Unbound fimbriae were removed with washes of 2.5 ml of PBS. Mouse anti-C. albicans fimbriae monoclonal antibody (ascites fluid diluted 1:3000 with PBS) was added to the BECs (1.2 ml/chamber) and incubated for 1.5 hour at room temperature. BECs were washed five times with 2.5 ml of PBS. Goat anti-mouse IgG(H+L)-peroxidase conjugates (Jackson Laboratories) diluted 1:5000 with PBS was added (1.0 ml/chamber) and incubated for another hour at room temperature. The cells were then washed seven times with 2.5 ml/chamber of PBS. The polycarbonate filters containing BECs were removed from the filtration manifold and placed into glass scintillation vials. The horseradish peroxidase substrate solution (ABTS) was added to each vial (1 ml/vial) and incubated for 30 min at room temperature on a shaker at 100 rpm. The reaction was stopped by the addition of 4 mM sodium azide (200 μl/vial). The substrate solution was pipetted into Eppendorf tubes and centrifuged at 5,000 g for 3 minutes. Aliquots of the supernatants were pipetted into microtiter wells (200 μl/well) and the resulting absorbance at 405 nm was recorded with a Titertek Multiskan Plus microplate recorder. […]

Row | Substance | Binding of fimbriae to glycosphingolipid coated on wells ([1]; EF 0 to 40 μg protein/ml) | Inhibition of C. albicans fimbriae binding to BECs [2] | Concentration of fimbrial protein required for half-maximal binding ([1]; the concentration is that of fimbrial protein) [µg/mL] | Inhibition of C. albicans fimbriae binding to BECs ([2]; competitor concentration not stated) [%]
1 | ceramide trihexoside [CTH, ceramide trihexoside [aGal(1-4)βGal(1-4)βGlc(1-1)Cer]] | failed to bind | failed to inhibit |  | 
2 | gangliotetraosylceramide: βGal(1-3)βGalNAc(1-4)βGal(1-4)βGlc(1-1)Cer [asialo-GM1] |  |  | 8 | 80
